28 compounds from patent US20260258064A1 (SIRONAX LTD., priority 2023, published 2026) can be followed below.

Usually IC50 stands for the concentration that inhibits the measured activity by half.

The test concerns the target T1, SARM1 (50-724) (Homo sapiens, UniProt Q6SZW1).
T1 construct: Purified SARM1 (50-724) with a final concentration of 2 nM was pre-incubated with a test compound
T1 sequence (Q6SZW1 50-724): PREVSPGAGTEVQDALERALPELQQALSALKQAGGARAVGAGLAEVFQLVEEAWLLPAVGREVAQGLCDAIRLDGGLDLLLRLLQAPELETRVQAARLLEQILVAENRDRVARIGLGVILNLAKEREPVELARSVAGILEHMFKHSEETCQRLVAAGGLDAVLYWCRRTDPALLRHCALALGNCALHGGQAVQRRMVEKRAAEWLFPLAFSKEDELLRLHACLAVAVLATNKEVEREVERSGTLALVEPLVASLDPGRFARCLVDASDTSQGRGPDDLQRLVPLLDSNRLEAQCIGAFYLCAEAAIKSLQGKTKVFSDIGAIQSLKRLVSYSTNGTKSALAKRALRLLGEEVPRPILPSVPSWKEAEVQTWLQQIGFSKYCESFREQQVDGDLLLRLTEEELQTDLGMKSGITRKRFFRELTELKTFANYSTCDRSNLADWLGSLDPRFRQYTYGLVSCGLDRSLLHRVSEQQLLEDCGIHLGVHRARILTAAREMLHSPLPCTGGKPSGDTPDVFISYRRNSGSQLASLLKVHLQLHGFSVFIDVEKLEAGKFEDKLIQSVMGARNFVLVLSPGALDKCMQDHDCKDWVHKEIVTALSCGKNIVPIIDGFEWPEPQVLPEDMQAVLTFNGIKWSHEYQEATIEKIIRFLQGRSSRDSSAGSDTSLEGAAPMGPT
Put plainly: SARM1 (50-724) enzymatic assay (LC-MS/MS). The settings on record: Purified SARM1 (50-724) 2 nM, NMN as activator, NAD+ as substrate, 1 h at room temperature, read-out: IC50 (SARM1 inhibitory activity). Type of test: biochemical. As to the method: An enzymatic assay was performed in a 384-well plate using Dulbecco's phosphate-buffered saline (PBS) as the reaction buffer. Purified SARM1 (50-724) with a final concentration of 2 nM was pre-incubated with a test compound at […] final assay concentration for 15 min at room temperature. The reaction was initiated by adding a mixture of […] nicotinamide mononucleotide (NMN) as activator and […] NAD^+ as substrate. After 1 h of incubation at room temperature, the reaction was terminated with 10 times volume of 70% acetonitrile, and then centrifuged at 3800 rpm for 10 min. The samples were analyzed using LC-MS/MS after diluted to a proper concentration by 10 mM ammonium acetate (pH 9.75).
In Table 2, activity is provided as follows: A: IC50≤100 nM; B: 100 nM<IC50≤500 nM; C: 500 nM<IC50≤1000 nM; D: IC50>1000 nM.
For the compound `FC(F)(F)c1ccc2[nH]c(-c3nccnc3-c3cccc(Cl)c3Cl)nc2c1` [Compound 304, 2-(3-(2,3-dichlorophenyl)pyrazin-2-yl)-5-(trifluoromethyl)-1H-benzo[d]imidazole], the half-maximal inhibitory concentration (IC50) lay within 500 to 1000 nM.

With `CS(=O)(=O)Cn1ncc(-c2nc3cc(C(F)(F)F)ccc3[nH]2)c1-c1cccc(Cl)c1Cl` [Compound 439, 2-(5-(2,3-dichlorophenyl)-1-((methylsulfonyl)methyl)-1H-pyrazol-4-yl)-5-(trifluoromethyl)-1H-benzo[d]imidazole], the IC50 fell in the range of 100 to 500 nM.

As to `COC(=O)C(C)(C)c1ccc2[nH]c(-c3nncn3-c3cccc(Cl)c3Cl)nc2c1` [Example 102], the IC50 was not above 100 nM.

As for `Fc1ccc(OC(F)(F)F)c(-n2cnnc2-c2nc3cc(C(F)(F)F)cc(F)c3[nH]2)c1` [Compound 213, 7-fluoro-2-(4-(5-fluoro-2-(trifluoromethoxy)phenyl)-4H-1,2,4-triazol-3-yl)-5-(trifluoromethyl)-1H-benzo[d]imidazole], the IC50 was not above 100 nM.

As to `FC(F)(F)c1ccncc1-n1cnnc1-c1nc2c(N3CC4(COC4)C3)c(Cl)ccc2[nH]1` [Compound 357, 6-(5-chloro-2-(4-(4-(trifluoromethyl)pyridin-3-yl)-4H-1,2,4-triazol-3-yl)-1H-benzo[d]imidazol-4-yl)-2-oxa-6-azaspiro[3.3]heptane], the IC50 was more than 1000 nM.

Consider `Fc1cccc(-n2cnnc2-c2nc3cc(C(F)(F)F)ccc3[nH]2)c1Cl` [Example 59, 2-(4-(2-chloro-3-fluorophenyl)-4H-1,2,4-triazol-3-yl)-5-(trifluoromethyl)-1H-benzo[d]imidazole], for which the IC50 is not above 100 nM.

Take `Fc1cc(Oc2nccs2)cc2nc(-c3nncn3-c3cnccc3C(F)(F)F)[nH]c12` [Compound 446, 2-((7-fluoro-2-(4-(4-(trifluoromethyl)pyridin-3-yl)-4H-1,2,4-triazol-3-yl)-1H-benzo[d]imidazol-5-yl)oxy)thiazole]: the IC50 was 100 to 500 nM.

`Cc1cc(-c2ccc3[nH]c(-c4nncn4-c4cccc(Cl)c4Cl)nc3c2)[nH]n1` [Example 51, 2-(4-(2,3-dichlorophenyl)-4H-1,2,4-triazol-3-yl)-5-(3-methyl-1H-pyrazol-5-yl)-1H-benzo[d]imidazole]: the IC50 is not above 100 nM.

On to `CCc1ccncc1-n1cnnc1-c1nc2cc(C(F)(F)F)ccc2[nH]1` [Compound 231, 2-(4-(4-ethylpyridin-3-yl)-4H-1,2,4-triazol-3-yl)-5-(trifluoromethyl)-1H-benzo[d]imidazole], for which the IC50 is not above 100 nM.

For `Cn1cc(-c2cccc(Cl)c2Cl)c(-c2nc3cc(C(C)(C)O)ccc3[nH]2)cc1=O` [Example 83, 5-(2,3-Dichlorophenyl)-4-(5-(2-hydroxypropan-2-yl)-1H-benzo[d]imidazol-2-yl)-1-methylpyridin-2 (1H)-one], the IC50 was more than 1000 nM.

For `CS(=O)(=O)Cc1nnc(-c2nc3cc(C(F)(F)F)ccc3[nH]2)n1-c1cccc(Cl)c1Cl` [Example 88, 2-(4-(2,3-dichlorophenyl)-5-((methylsulfonyl)methyl)-4H-1,2,4-triazol-3-yl)-5-(trifluoromethyl)-1H-benzo[d]imidazole], the IC50 is not above 100 nM.

As for `CC(CO)c1ccc2[nH]c(-c3nncn3-c3cccc(Cl)c3Cl)nc2c1` (stereo not shown) [Example 104, 2-(2-(4-(2,3-dichlorophenyl)-4H-1,2,4-triazol-3-yl)-1H-benzo[d]imidazol-5-yl)propan-1-ol], the IC50 is not above 100 nM.

In the case of `CS(=O)(=O)Cc1nnc(-c2nc3c(F)c(C(F)(F)F)ccc3[nH]2)n1-c1cccc(F)c1Cl` (single isomer, unassigned) [Compound 197, 2-(4-(2-chloro-3-fluorophenyl)-5-((methylsulfonyl)methyl)-4H-1,2,4-triazol-3-yl)-4-fluoro-5-(trifluoromethyl)-1H-benzo[d]imidazole], the IC50 is not above 100 nM.

`O=S1(=O)CC[C@@H](OC(F)(F)F)[C@H](n2cnnc2-c2nc3cc(C(F)(F)F)ccc3[nH]2)C1` (single isomer, unassigned) [Compound 288]: the IC50 was more than 1000 nM.

As for `O=C1CN(c2nc3cc(C(F)(F)F)ccc3[nH]2)C(c2ccccc2)CN1` (stereo not shown) [Compound 368, 5-phenyl-4-(5-(trifluoromethyl)-1H-benzo[d]imidazol-2-yl)piperazin-2-one], the IC50 was more than 1000 nM.

`CCC(O)(CC)c1ccc2[nH]c(-c3nncn3-c3ccc(F)c(F)c3Cl)nc2c1` [Compound 151, 3-(2-(4-(2-chloro-3,4-difluorophenyl)-4H-1,2,4-triazol-3-yl)-1H-benzo[d]imidazol-5-yl)pentan-3-ol]: the half-inhibitory concentration (IC50) was not above 100 nM.

As for `CS(=O)(=O)Cc1nnc(-c2nc3c(F)c(C(F)(F)F)ccc3[nH]2)n1-c1cccc(F)c1Cl` (single isomer, unassigned) [Compound 196, 2-(4-(2-chloro-3-fluorophenyl)-5-((methylsulfonyl)methyl)-4H-1,2,4-triazol-3-yl)-4-fluoro-5-(trifluoromethyl)-1H-benzo[d]imidazole], the IC50 is more than 1000 nM.

Take `CC(c1ccccc1)c1cc(F)c2[nH]c(-c3nncn3-c3cnccc3C(F)(F)F)nc2c1` (stereo not shown) [Compound 431, 7-fluoro-5-(1-phenylethyl)-2-(4-(4-(trifluoromethyl)pyridin-3-yl)-4H-1,2,4-triazol-3-yl)-1H-benzo[d]imidazole]: the concentration for half-maximal inhibition (IC50) is not above 100 nM.

As to `OCCc1nnc(-c2nc3cc(C(F)(F)F)ccc3[nH]2)n1-c1cccc(Cl)c1Cl` [Example 121, 2-(4-(2,3-Dichlorophenyl)-5-(5-(trifluoromethyl)-1H-benzo[d]imidazol-2-yl)-4H-1,2,4-triazol-3-yl)ethan-1-ol], the IC50 is not above 100 nM.

As to `CP(C)(=O)c1ccc(Cl)c(-n2cnnc2-c2nc3cc(C(F)(F)F)ccc3[nH]2)c1` [Compound 244, (4-chloro-3-(3-(5-(trifluoromethyl)-1H-benzo[d]imidazol-2-yl)-4H-1,2,4-triazol-4-yl)phenyl)dimethylphosphine oxide], the IC50 is more than 1000 nM.

Regarding `FC(F)(F)c1ccc2[nH]c(-c3nncn3-c3cnccc3C(F)(F)F)c(-c3cccnn3)c2c1` [Compound 426, 3-pyridazin-3-yl-5-(trifluoromethyl)-2-[4-[4-(trifluoromethyl)-3-pyridyl]-1,2,4-triazol-3-yl]-1H-indole], the IC50 was not above 100 nM.

As for `FC(F)(F)c1ccncc1-n1cnnc1-c1nc2cc(C3CCOCC3)ccc2[nH]1` [Compound 352, 5-tetrahydropyran-4-yl-2-[4-[4-(trifluoromethyl)-3-pyridyl]-1,2,4-triazol-3-yl]-1H-benzimidazole], the half-maximal inhibitory concentration (IC50) fell in the range of 100 to 500 nM.

For the compound `FC(F)(F)c1ccc2[nH]c(-c3nncn3-c3cnccc3C(F)(F)F)c(-c3ccnnc3)c2c1` [Compound 427, 3-pyridazin-4-yl-5-(trifluoromethyl)-2-[4-[4-(trifluoromethyl)-3-pyridyl]-1,2,4-triazol-3-yl]-1H-indole], the IC50 is not above 100 nM.

Regarding `CN(C)c1cc(F)c2[nH]c(-c3nncn3-c3cnccc3C(F)(F)F)nc2c1` [Compound 297, 7-fluoro-N,N-dimethyl-2-(4-(4-(trifluoromethyl)pyridin-3-yl)-4H-1,2,4-triazol-3-yl)-1H-benzo[d]imidazol-5-amine], the IC50 was not above 100 nM.

For the compound `N#CC1(c2ccc3[nH]c(-c4nncn4-c4cccc(F)c4Cl)nc3c2)CC12CC2` (stereo not shown) [Compound 229, 1-(2-(4-(2-chloro-3-fluorophenyl)-4H-1,2,4-triazol-3-yl)-1H-benzo[d]imidazol-5-yl)spiro[2.2]pentane-1-carbonitrile], the IC50 is not above 100 nM.

On to `CC(c1ccncc1)c1cc(F)c2[nH]c(-c3nnccc3-c3cnccc3C(F)(F)F)nc2c1` (stereo not shown) [Compound 460, 7-fluoro-5-(1-(pyridin-4-yl)ethyl)-2-(4-(4-(trifluoromethyl)pyridin-3-yl)pyridazin-3-yl)-1H-benzo[d]imidazole], for which the IC50 was not above 100 nM.

As for `CC(C)(O)c1ccc2[nH]c(-c3nnccc3-c3cnccc3C(F)(F)F)nc2c1F` [Compound 343, 2-(4-Fluoro-2-(4-(4-(trifluoromethyl)pyridin-3-yl)pyridazin-3-yl)-1H-benzo[d]imidazol-5-yl)propan-2-ol], the concentration for half-maximal inhibition (IC50) is not above 100 nM.

As to `CS(=O)(=O)c1c(-c2nncn2-c2cccc(F)c2Cl)[nH]c2ccc(C(F)(F)F)cc12` [Compound 346, 2-[4-(2-chloro-3-fluorophenyl)-1,2,4-triazol-3-yl]-3-methanesulfonyl-5-(trifluoromethyl)-1H-indole], the IC50 is not above 100 nM.
